Reference: US20120041167A1, “POLY(GLUTAMIC ACID)-DRUG CONJUGATE WITH AN AMINO ACID AS A LINKER” (Institute of Pharmacology and Toxicology Academy of …, priority 2006, published 2012)

Key:
[1] = system: human liver cancer cells (HepG2); experiment: Activities against transplanted human liver cancer tumor in mice; assay type: in vivo, Balb/c-nu/nu nude mice; conditions: HepG2 xenograft, 20 days after administration; for Inhibition rate (%): tumor weight vs control group
Description: Balb/c-nu/nu nude mice (5 to 7 weeks old, 16-20 g) were randomly grouped. The mice were inoculated subcutaneously with 0.1 ml of a cell suspension containing 10^6 human liver cancer cells (HepG2). Upon the tumor volume having reached 50 mm^3, the mice were intravenously injected with a dose of a conjugate or a free drug. Twenty days after the administration, the animals were sacrificed and their body weight and tumor weight were measured. Tumor inhibition rate was calculated according to the following equation: […]

[2] = system: human breast cancer cells (Bacp-37); experiment: Activities against transplanted human breast cancer tumor in mice; assay type: in vivo, Balb/c-nu/nu nude mice; conditions: Bacp-37 xenograft, 20 days after administration; for Inhibition rate (%): tumor weight vs control group
Description: Balb/c-nu/nu nude mice (5 to 7 weeks old, 16-20 g) were randomly grouped. The mice were inoculated subcutaneously with 0.1 ml of a cell suspension containing 10^6 human breast cancer cells (Bacp-37). Upon the tumor volume having reached 50 mm^3, the mice were intravenously injected with a dose of a conjugate or a free drug. Twenty days after the administration, the animals were sacrificed and their body weight and tumor weight were measured.

[3] = single i.v. dose 100 mg/kg (as free drug)

CC(=O)O[C@@]12CO[C@@H]1C[C@H](O)[C@@]1(C)C(=O)[C@H](O)C3=C(C)[C@@H](OC(=O)[C@H](O)[C@@H](NC(=O)OC(C)(C)C)c4ccccc4)C[C@@](O)([C@@H](OC(=O)c4ccccc4)[C@H]21)C3(C)C [Docetaxel]
Change of body weight (g) ([1]; i.v. 100 mg/kg (as free drug)): +6.92 g | Weight of tumor ([1]; i.v. 100 mg/kg (as free drug)): 0.56 g | Inhibition rate (%) ([1]; i.v. 100 mg/kg (as free drug)): 55.56% | Number of animals (final/initial) [1, 3]: 6/6 | Change of body weight (g) ([2]; i.v. 100 mg/kg): +6.29 g | Weight of tumor ([2]; i.v. 100 mg/kg): 0.35 g | Number of animals (final/initial) ([2]; single i.v. dose 100 mg/kg): 6/6

Nc1ccn([C@@H]2O[C@H](CO)[C@@H](O)C2(F)F)c(=O)n1 [Gemcitabine]
Change of body weight (g) ([1]; i.v. 5 mg/kg (as free drug)): +4.77 g | Weight of tumor ([1]; i.v. 5 mg/kg (as free drug)): 0.45 g | Inhibition rate (%) ([1]; i.v. 5 mg/kg (as free drug)): 64.28% | Number of animals (final/initial) ([1]; single i.v. dose 5 mg/kg (as free drug)): 4/6 | Change of body weight (g) ([2]; i.v. 5 mg/kg): +5.08 g | Weight of tumor ([2]; i.v. 5 mg/kg): 0.51 g | Inhibition rate (%) ([2]; i.v. 5 mg/kg): 63.08% | Number of animals (final/initial) ([2]; single i.v. dose 5 mg/kg): 5/6

CC(=O)O[C@H]1C(=O)[C@@]2(C)[C@H]([C@H](OC(=O)c3ccccc3)[C@]3(O)C[C@H](OC(=O)[C@H](O)[C@@H](NC(=O)c4ccccc4)c4ccccc4)C(C)=C1C3(C)C)[C@]1(OC(C)=O)CO[C@@H]1C[C@@H]2O [Paclitaxel]
Change of body weight (g) ([1]; i.v. 100 mg/kg (as free drug)): +5.38 g | Weight of tumor ([1]; i.v. 100 mg/kg (as free drug)): 0.54 g | Inhibition rate (%) ([1]; i.v. 100 mg/kg (as free drug)): 57.14% | Number of animals (final/initial) [1, 3]: 5/6 | Change of body weight (g) ([2]; i.v. 100 mg/kg): +5.91 g | Weight of tumor ([2]; i.v. 100 mg/kg): 0.48 g | Inhibition rate (%) ([2]; i.v. 100 mg/kg): 65.22% | Number of animals (final/initial) ([2]; single i.v. dose 100 mg/kg): 5/6

[N-acetyl-poly-(L)-glutamic acid]-[2′-O-(L-alanyl)-docetaxel] conjugate [Compound I12]
Weight of tumor ([2]; i.v. 100 mg/kg): 0.34 g | Inhibition rate (%) ([2]; i.v. 100 mg/kg): 75.36%

[N-acetyl-poly-(L)-glutamic acid]-[2′-O-(L-alanyl)-paclitaxel] conjugate [Compound I10]
Weight of tumor ([2]; i.v. 100 mg/kg): 0.29 g | Inhibition rate (%) ([2]; i.v. 100 mg/kg): 78.99%

[N-acetyl-poly-(L)-glutamic acid]-[2′-O-(L-isoleucyl)-docetaxel] conjugate [Compound I18]
Weight of tumor ([2]; i.v. 100 mg/kg): 0.73 g | Inhibition rate (%) ([2]; i.v. 100 mg/kg): 47.10%

[N-acetyl-poly-(L)-glutamic acid]-[2′-O-(L-valyl)-paclitaxel] conjugate [Compound I22]
Weight of tumor ([2]; i.v. 100 mg/kg): 0.41 g | Inhibition rate (%) ([2]; i.v. 100 mg/kg): 70.29%

[N-acetyl-poly-(L)-glutamic acid]-[2′-O-(glycyl)-docetaxel] conjugate [Compound I6]
Weight of tumor ([2]; i.v. 100 mg/kg): 0.47 g | Inhibition rate (%) ([2]; i.v. 100 mg/kg): 65.94%

[N-acetyl-poly-(L)-glutamic acid]-[2′-O-(glycyl)-paclitaxel] conjugate [Compound I4]
Weight of tumor ([2]; i.v. 100 mg/kg): 0.42 g | Inhibition rate (%) ([2]; i.v. 100 mg/kg): 69.56%

[N-acetyl-poly-(L)-glutamic acid]-[5′-O-(L-alanyl)-gemcitabine] conjugate [Compound I8]
Weight of tumor ([2]; i.v. 5 mg/kg): 0.39 g | Inhibition rate (%) ([2]; i.v. 5 mg/kg): 71.73%

[poly-(L)-glutamic acid]-[5′-O-(glycyl)-gemcitabine] conjugate [Compound I1]
Weight of tumor ([2]; i.v. 5 mg/kg): 0.46 g | Inhibition rate (%) ([2]; i.v. 5 mg/kg): 71.01%
